Data: patent US20080199518A1, “Controlled-release formulation of piperazine-piperidine antagonists and agonists of the 5-HT1A receptor having enhanced intestinal dissolution” (priority 2006, published 2008)
Where two headings read alike, the source gives them in different places.

How the values were obtained:
physchem = assay type: physicochemical
Experimental: The solubility of one of the compounds described herein, 5-fluoro-8-{4-[4-(6-methoxyquinolin-8-yl)piperazin-1-yl]piperidin-1-yl}quinoline, as a function of pH was determined experimentally. In the study, suspensions of about 0.5-40 mg/mL of the compound were prepared in water and various concentrations of hydrochloric acid and sodium hydroxide. The suspensions were measured for pH after equilibration at ambient temperature. The suspensions were then filtered through a suitable filter for concentrated samples and centrifuged for lower concentrations, with confirmation that the supernatants were particulate-free by laser. The filtrates were then analyzed by HPLC.

[1] = not told

solubility (physchem; pH greater than about six)	solubility (physchem; water, thermodynamic from solid, trisuccinate salt, aqueous, read-out: aqueous solubility) [µg/mL]	solubility around neutral pH of the lower gastrointestinal tract (physchem)	water solubility (physchem)	permeability [1]	SMILES
sub-microgram per milliliter level	~1000				COc1cc(N2CCN(C3CCN(c4ccc(F)c5cccnc45)CC3)CC2)c2ncccc2c1.O=C(O)CCC(=O)O.O=C(O)CCC(=O)O.O=C(O)CCC(=O)O [5-fluoro-8-{4-[4-(6-methoxyquinolin-8-yl)piperazin-1-yl]piperidin-1-yl}quinoline trisuccinate]
		less than 1 μg/mL	approximately 0.04 μg/mL	high permeability	COc1cc(N2CCN(C3CCN(c4ccc(F)c5cccnc45)CC3)CC2)c2ncccc2c1 [5-fluoro-8-{4-[4-[(6-methoxyquinolin-8-yl)piperazin-1-yl]piperidin-1-yl}quinoline]
